# Assay results as given in PubChem BioAssay (NCI).
#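 Test compounds were applied to cells in 96-well plates for 48 hours at 5 doses. GI50 = concentration required for 50% inhibition of growth. Definition used: TGI = concentration required for complete inhibition of growth.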
# Tests used:
# Assay in all cases: NCI anticancer screen, dose series, 48 h
# 786-0 renal = tested on: 786-0 renal
# A498 renal = tested on: A498 renal
# A549 NSCLC = tested on: A549 NSCLC
# ACHN renal = tested on: ACHN renal
# BT-549 breast = tested on: BT-549 breast
# CAKI-1 renal = tested on: CAKI-1 renal
# CCRF-CEM leukemia = tested on: CCRF-CEM leukemia
# COLO 205 colon = tested on: COLO 205 colon
# DU-145 prostate = tested on: DU-145 prostate
# EKVX NSCLC = tested on: EKVX NSCLC
# HCC-2998 colon = tested on: HCC-2998 colon
# HCT-116 colon = tested on: HCT-116 colon
# HCT-15 colon = tested on: HCT-15 colon
# HL-60(TB) leukemia = tested on: HL-60(TB) leukemia
# HOP-62 NSCLC = tested on: HOP-62 NSCLC
# HOP-92 NSCLC = tested on: HOP-92 NSCLC
# HS 578T breast = tested on: HS 578T breast
# HT29 colon = tested on: HT29 colon
# IGROV1 ovarian = tested on: IGROV1 ovarian
# K-562 leukemia = tested on: K-562 leukemia
# KM12 colon = tested on: KM12 colon
# LOX IMVI melanoma = tested on: LOX IMVI melanoma
# M14 melanoma = tested on: M14 melanoma
# MALME-3M melanoma = tested on: MALME-3M melanoma
# MCF7 breast = tested on: MCF7 breast
# MDA-MB-231 breast = tested on: MDA-MB-231 breast
# MDA-MB-435 = tested on: MDA-MB-435
# MDA-MB-468 breast = tested on: MDA-MB-468 breast
# MOLT-4 leukemia = tested on: MOLT-4 leukemia
# NCI-H226 lung = tested on: NCI-H226 lung
# NCI-H23 lung = tested on: NCI-H23 lung
# NCI-H460 lung = tested on: NCI-H460 lung
# NCI-H522 lung = tested on: NCI-H522 lung
# NCI/ADR-RES ovarian = tested on: NCI/ADR-RES ovarian
# OVCAR-3 ovarian = tested on: OVCAR-3 ovarian
# OVCAR-4 ovarian = tested on: OVCAR-4 ovarian
# OVCAR-5 ovarian = tested on: OVCAR-5 ovarian
# OVCAR-8 ovarian = tested on: OVCAR-8 ovarian
# PC-3 prostate = tested on: PC-3 prostate
# RPMI-8226 leukemia = tested on: RPMI-8226 leukemia
# RXF 393 renal = tested on: RXF 393 renal
# SF-268 CNS = tested on: SF-268 CNS
# SF-295 CNS = tested on: SF-295 CNS
# SF-539 CNS = tested on: SF-539 CNS
# SK-MEL-2 melanoma = tested on: SK-MEL-2 melanoma
# SK-MEL-28 melanoma = tested on: SK-MEL-28 melanoma
# SK-MEL-5 melanoma = tested on: SK-MEL-5 melanoma
# SK-OV-3 ovarian = tested on: SK-OV-3 ovarian
# SN12C renal = tested on: SN12C renal
# SNB-19 CNS = tested on: SNB-19 CNS
# SNB-75 CNS = tested on: SNB-75 CNS
# SR leukemia = tested on: SR leukemia
# SW-620 colon = tested on: SW-620 colon
# T-47D breast = tested on: T-47D breast
# TK-10 renal = tested on: TK-10 renal
# U251 CNS = tested on: U251 CNS
# UACC-257 melanoma = tested on: UACC-257 melanoma
# UACC-62 melanoma = tested on: UACC-62 melanoma
# UO-31 renal = tested on: UO-31 renal
smiles,measurement,setting,value
CC(C)(C)c1ccc(NCc2cn(-c3ccc(C(=O)O)cc3)nc2-c2ccc(C#N)cc2)cc1,GI50,786-0 renal,12.9 µM
same,TGI,786-0 renal,27.6 µM
same,GI50,A498 renal,11.1 µM
same,TGI,A498 renal,23.4 µM
same,GI50,A549 NSCLC,3.77 µM
same,TGI,A549 NSCLC,17.1 µM
same,GI50,ACHN renal,6.12 µM
same,TGI,ACHN renal,60.1 µM
same,GI50,BT-549 breast,6.77 µM
same,TGI,BT-549 breast,22.4 µM
same,GI50,CAKI-1 renal,8.23 µM
same,TGI,CAKI-1 renal,26.3 µM
same,GI50,CCRF-CEM leukemia,3.73 µM
same,TGI,CCRF-CEM leukemia,36.8 µM
same,GI50,COLO 205 colon,3.18 µM
same,TGI,COLO 205 colon,11.8 µM
same,GI50,DU-145 prostate,12.4 µM
same,TGI,DU-145 prostate,38.2 µM
same,GI50,EKVX NSCLC,3.07 µM
same,TGI,EKVX NSCLC,12.5 µM
same,GI50,HCC-2998 colon,3.31 µM
same,TGI,HCC-2998 colon,11.7 µM
same,GI50,HCT-116 colon,4.45 µM
same,TGI,HCT-116 colon,17.3 µM
same,GI50,HCT-15 colon,3.36 µM
same,TGI,HCT-15 colon,12.6 µM
same,GI50,HL-60(TB) leukemia,2.83 µM
same,TGI,HL-60(TB) leukemia,14.1 µM
same,GI50,HOP-62 NSCLC,5.28 µM
same,TGI,HOP-62 NSCLC,20.8 µM
same,GI50,HOP-92 NSCLC,8.12 µM
same,TGI,HOP-92 NSCLC,23.3 µM
same,GI50,HS 578T breast,3.54 µM
same,TGI,HS 578T breast,27.2 µM
same,GI50,HT29 colon,5.75 µM
same,TGI,HT29 colon,21.4 µM
same,GI50,IGROV1 ovarian,10.7 µM
same,TGI,IGROV1 ovarian,25.6 µM
same,GI50,K-562 leukemia,3.48 µM
same,TGI,K-562 leukemia,76.9 µM
same,GI50,KM12 colon,3.45 µM
same,TGI,KM12 colon,13 µM
same,GI50,LOX IMVI melanoma,7.3 µM
same,TGI,LOX IMVI melanoma,20.3 µM
same,GI50,M14 melanoma,7.28 µM
same,TGI,M14 melanoma,25.9 µM
same,GI50,MALME-3M melanoma,11.3 µM
same,TGI,MALME-3M melanoma,28.3 µM
same,GI50,MCF7 breast,3.43 µM
same,TGI,MCF7 breast,21.6 µM
same,GI50,MDA-MB-231 breast,12.2 µM
same,TGI,MDA-MB-231 breast,27.5 µM
same,GI50,MDA-MB-435,6.31 µM
same,TGI,MDA-MB-435,32.7 µM
same,GI50,MDA-MB-468 breast,10.1 µM
same,TGI,MDA-MB-468 breast,34.3 µM
same,GI50,MOLT-4 leukemia,4.34 µM
same,TGI,MOLT-4 leukemia,> 100 µM
same,GI50,NCI-H226 lung,10.8 µM
same,TGI,NCI-H226 lung,35.6 µM
same,GI50,NCI-H23 lung,11.8 µM
same,TGI,NCI-H23 lung,27.4 µM
same,GI50,NCI-H460 lung,4.41 µM
same,TGI,NCI-H460 lung,17 µM
same,GI50,NCI-H522 lung,10.1 µM
same,TGI,NCI-H522 lung,27.8 µM
same,GI50,NCI/ADR-RES ovarian,5.81 µM
same,TGI,NCI/ADR-RES ovarian,23.4 µM
same,GI50,OVCAR-3 ovarian,6.86 µM
same,TGI,OVCAR-3 ovarian,21.9 µM
same,GI50,OVCAR-4 ovarian,6.23 µM
same,TGI,OVCAR-4 ovarian,> 100 µM
same,GI50,OVCAR-5 ovarian,14.2 µM
same,TGI,OVCAR-5 ovarian,28.7 µM
same,GI50,OVCAR-8 ovarian,4.66 µM
same,TGI,OVCAR-8 ovarian,17.4 µM
same,GI50,PC-3 prostate,5.74 µM
same,TGI,PC-3 prostate,31.1 µM
same,GI50,RPMI-8226 leukemia,3.91 µM
same,TGI,RPMI-8226 leukemia,25.2 µM
same,GI50,RXF 393 renal,6.94 µM
same,TGI,RXF 393 renal,21.4 µM
same,GI50,SF-268 CNS,7.21 µM
same,TGI,SF-268 CNS,26 µM
same,GI50,SF-295 CNS,5.35 µM
same,TGI,SF-295 CNS,20.7 µM
same,GI50,SF-539 CNS,5.96 µM
same,TGI,SF-539 CNS,19.7 µM
same,GI50,SK-MEL-2 melanoma,4.37 µM
same,TGI,SK-MEL-2 melanoma,18.3 µM
same,GI50,SK-MEL-28 melanoma,4.3 µM
same,TGI,SK-MEL-28 melanoma,17.8 µM
same,GI50,SK-MEL-5 melanoma,3.58 µM
same,TGI,SK-MEL-5 melanoma,13.5 µM
same,GI50,SK-OV-3 ovarian,16.1 µM
same,TGI,SK-OV-3 ovarian,34.5 µM
same,GI50,SN12C renal,7.81 µM
same,TGI,SN12C renal,20.4 µM
same,GI50,SNB-19 CNS,4.44 µM
same,TGI,SNB-19 CNS,16.8 µM
same,GI50,SNB-75 CNS,6.97 µM
same,TGI,SNB-75 CNS,21.3 µM
same,GI50,SR leukemia,3.03 µM
same,TGI,SR leukemia,20.8 µM
same,GI50,SW-620 colon,7.65 µM
same,TGI,SW-620 colon,25.1 µM
same,GI50,T-47D breast,4.57 µM
same,TGI,T-47D breast,> 100 µM
same,GI50,TK-10 renal,13.7 µM
same,TGI,TK-10 renal,31 µM
same,GI50,U251 CNS,4.64 µM
same,TGI,U251 CNS,17.5 µM
same,GI50,UACC-257 melanoma,8.15 µM
same,TGI,UACC-257 melanoma,42.8 µM
same,GI50,UACC-62 melanoma,5.48 µM
same,TGI,UACC-62 melanoma,19 µM
same,GI50,UO-31 renal,6.5 µM
same,TGI,UO-31 renal,21.1 µM
